{"source": "patent US20250195530A1", "about": "“POLQ INHIBITORS” (ASTRAZENECA AB, priority 2022, published 2025)", "test_system": "DLD-1 BRCA2−/− cells", "test": "Homologous recombination synthetic lethal inhibition of proliferation, DLD-1 BRCA2-/- (Cell Titre Glo 3D)", "type": "cell-based", "settings": "for IC50: Homo sapiens; for POLQ PD Prolif Lumin BRCA2 −/− mean pIC50: DLD-1 BRCA2 −/−", "text": "This assay identifies anti-proliferative effects of POLQ compounds in the homologous recombination deficient colorectal cell line DLD-1 BRCA2−/− over 8-9 population doublings (7 days for DLD-1 and 12 days for DLD-1 BRCA2−/−). DLD1 BRCA2 wt are used as a control to detect cell toxic effects not specific to homologous recombination deficiency.\nDLD-1 BRCA2−/− and DLD-1 cells were kept in continuous culture in Assay Medium (RPMI 1640 phenol red free (Sigma R7509) containing 1% GlutaMAX (Gibco 35050) and 10% Foetal Bovine Serum (Gibco 10270-106)). On the day of the assay cells in culture of ˜80-90% confluent were used. Cell monolayers were washed with 10 mL PBS, then removed and added 2 mL TrypLE Express (Gibco 12604). The cells with TrypLE Express were incubated for 5 minutes in cell culture incubator and then the detached cells resuspend in 15 mL Assay Medium. Cells were counted using a ViCell and the cell images were monitored for clumps of cells, ideally they should be single or <3 cell clusters. The cells were diluted to 3,000 cells/mL of DLD-1 BRCA2−/− and 1,500 cells/mL of DLD-1 in Assay Medium and 100 μL added per well of transparent bottomed, black, tissue culture-treated 96-well plates (CoStar, No. 3904) Assay Ready Plates. The Assay Ready Plates contain a 10 point 10 μM to 0.51 nM dose range with three-fold dilutions in DMSO with a final volume of 100 nL. The plates were incubated at 37° C. with 5% C02 for 6 days. On day 6, 100 μL/well of Assay Medium was added to duplicate Assay Ready Plates. 90 μL of culture medium was removed from the cell plates and replenished with the Assay Media and compounds from the duplicate Assay Ready Plates using the Bravo. The plates were further incubated at 37° C. with 5% CO2. On day 7 the plates containing DLD-1 and Cell Titre Glo 3D (Promega G9683) were equilibrated to room temperature, then 60 μL of Cell Titre Glo 3D was added per well and incubated on a shaking platform for 30 min. Plates were read on the Envision measuring luminescence for 1 second per well. On day 12 the plates containing DLD-1 BRCA2−/− cells and Cell Titre Glo 3D (Promega G9683) were equilibrated to room temperature, then 60 μL Cell Titre Glo 3D added per well and incubated on a shaking platform for 30 min. Plates were read on the Envision measuring luminescence for 1 second per well. The data was exported into a suitable software package (such as Genedata) to perform curve fitting analysis. Inhibition of cell proliferation was expressed as an IC5o value and was determined by calculation of the concentration of compound that was required to give a 50% reduction of the average maximum Total Intensity signal.", "key": {"[1]": {"settings": "DLD-1 BRCA2-/- proliferation, column head only partly shown"}, "[2]": {"settings": "DLD-1, proliferation, luminescence, taken as DLD-1 BRCA2-/-, read-out: POLQ PD Prolif Lumin (converted)"}, "[3]": {"settings": "DLD-1, first proliferation column (c5), DLD-1 BRCA2-/-, read-out: POLQ PD Prolif Lumin (converted)"}, "[4]": {"settings": "DLD-1, first proliferation column, DLD-1 BRCA2-/-, read-out: POLQ PD Prolif Lumin (converted)"}}, "note": "Like-named read-outs stand apart in the source and are kept apart here."}
{"smiles": "CC(CCOc1ccc(-c2nc3c(OC4(C)CC4)ncnc3n2Cc2cccc(Cl)c2F)c(Cl)c1)C(=O)O", "note": "(single isomer, unassigned) [Example T271, 4-(3-chloro-4-(9-(3-chloro-2-fluorobenzyl)-6-(1-methylcyclopropoxy)-9H-purin-8-yl)phenoxy)-2-methylbutanoic acid]", "values": [{"measurement": "POLQ PD Prolif Lumin", "setting": "[1]", "value": 6.4}]}
{"smiles": "CC(CCOc1ccc(-c2nc3c(OC4(C)CC4)ncnc3n2Cc2cc(F)cc(Cl)c2)c(Cl)c1)C(=O)O", "note": "(single isomer, unassigned) [Example T272, 4-(3-chloro-4-(9-(3-chloro-5-fluorobenzyl)-6-(1-methylcyclopropoxy)-9H-purin-8-yl)phenoxy)-2-methylbutanoic acid]", "values": [{"measurement": "IC50", "setting": "DLD-1, DLD-1 BRCA2-/- proliferation, column head only partly shown, read-out: POLQ PD Prolif Lumin (converted)", "value": 200, "unit": "nM"}]}
{"smiles": "CC(CCOc1ccc(-c2nc3c(OC4(C)CC4)ncnc3n2Cc2cc(F)cc(Cl)c2)c(Cl)c1)C(=O)O", "note": "(single isomer, unassigned) [Example T273, 4-(3-chloro-4-(9-(3-chloro-5-fluorobenzyl)-6-(1-methylcyclopropoxy)-9H-purin-8-yl)phenoxy)-2-methylbutanoic acid]", "values": [{"measurement": "POLQ PD Prolif Lumin", "setting": "[1]", "value": 6.8}]}
{"smiles": "CC(CCOc1ccc(-c2nc3c(OC4(C)CC4)ncnc3n2Cc2cccc(C(F)(F)F)c2)c(Cl)c1)C(=O)O", "note": "(single isomer, unassigned) [Example T396, 4-(3-chloro-4-(6-(1-methylcyclopropoxy)-9-(3-(trifluoromethyl)benzyl)-9H-purin-8-yl)phenoxy)-2-methylbutanoic acid]", "values": [{"measurement": "IC50", "setting": "[2]", "value": 251, "unit": "nM"}]}
{"smiles": "CC(CCOc1ccc(-c2nc3c(OC4(C)CC4)ncnc3n2Cc2cccc(C(F)F)c2)c(Cl)c1)C(=O)O", "note": "(single isomer, unassigned) [Example T412, 4-(3-chloro-4-(9-(3-(difluoromethyl)benzyl)-6-(1-methylcyclopropoxy)-9H-purin-8-yl)phenoxy)-2-methylbutanoic acid]", "values": [{"measurement": "IC50", "setting": "[2]", "value": 251, "unit": "nM"}]}
{"smiles": "CC(CCOc1ccc(-c2nc3c(OC4(C)CC4)ncnc3n2Cc2ccccc2C(F)F)c(Cl)c1)C(=O)O", "note": "(single isomer, unassigned) [Example T414, 4-(3-chloro-4-(9-(2-(difluoromethyl)benzyl)-6-(1-methylcyclopropoxy)-9H-purin-8-yl)phenoxy)-2-methylbutanoic acid]", "values": [{"measurement": "IC50", "setting": "[2]", "value": 1580, "unit": "nM"}]}
{"smiles": "CC(CCCOc1ccc(-c2nc3c(OC4(C)CC4)ncnc3n2Cc2cccc(Cl)c2)c(Cl)c1)C(=O)O", "note": "(single isomer, unassigned) [Example T438, 5-(3-chloro-4-(9-(3-chlorobenzyl)-6-(1-methylcyclopropoxy)-9H-purin-8-yl)phenoxy)-2-methylpentanoic acid]", "values": [{"measurement": "IC50", "setting": "[2]", "value": 126, "unit": "nM"}]}
{"smiles": "CC(CCCOc1cccc(-c2nc3c(OC4(C)CC4)ncnc3n2Cc2cccc(Cl)c2)c1Cl)C(=O)O", "note": "(single isomer, unassigned) [Example T443, 5-(2-chloro-3-(9-(3-chlorobenzyl)-6-(1-methylcyclopropoxy)-9H-purin-8-yl)phenoxy)-2-methylpentanoic acid]", "values": [{"measurement": "IC50", "setting": "[2]", "value": 79.4, "unit": "nM"}]}
{"smiles": "COc1cc(Cl)cc(Cn2c(-c3ccc(OCCC(C)C(=O)O)cc3Cl)nc3c(OC4(C)CC4)ncnc32)c1", "note": "(single isomer, unassigned) [Example T446, 4-(3-chloro-4-(9-(3-chloro-5-methoxybenzyl)-6-(1-methylcyclopropoxy)-9H-purin-8-yl)phenoxy)-2-methylbutanoic acid]", "values": [{"measurement": "IC50", "setting": "[2]", "value": 316, "unit": "nM"}]}
{"smiles": "COc1cccc(Cn2c(-c3ccc(OCCC(C)C(=O)O)cc3Cl)nc3c(OC4(C)CC4)ncnc32)c1", "note": "(single isomer, unassigned) [Example T455, 4-(3-chloro-4-(9-(3-methoxybenzyl)-6-(1-methylcyclopropoxy)-9H-purin-8-yl)phenoxy)-2-methylbutanoic acid]", "values": [{"measurement": "IC50", "setting": "[2]", "value": 1580, "unit": "nM"}]}
{"smiles": "Cc1c(Cn2c(-c3ccc(OCCC(C)C(=O)O)cc3Cl)nc3c(OC4(C)CC4)ncnc32)cccc1C(F)(F)F", "note": "(single isomer, unassigned) [Example T534, 4-(3-chloro-4-(9-(2-methyl-3-(trifluoromethyl)benzyl)-6-(1-methylcyclopropoxy)-9H-purin-8-yl)phenoxy)-2-methylbutanoic acid]", "values": [{"measurement": "IC50", "setting": "[3]", "value": 3160, "unit": "nM"}]}
{"smiles": "Cc1ccnc(Cn2c(-c3ccc(OC4CCc5nccn5C4)cc3Cl)nc3c(OC4(C)CC4)ncnc32)c1", "note": "(single isomer, unassigned) [Example T536, 8-(2-chloro-4-((5,6,7,8-tetrahydroimidazo[1,2-a]pyridin-6-yl)oxy)phenyl)-6-(1-methylcyclopropoxy)-9-((4-methylpyridin-2-yl)methyl)-9H-purine]", "values": [{"measurement": "IC50", "setting": "[3]", "value": 501, "unit": "nM"}]}
{"smiles": "CC(CCOc1ccc(-c2nc3c(OC4(C)CC4)ncnc3n2Cc2cccc(C(C)(F)F)c2)c(Cl)c1)C(=O)O", "note": "(single isomer, unassigned) [Example T545, 4-(3-chloro-4-(9-(3-(1,1-difluoroethyl)benzyl)-6-(1-methylcyclopropoxy)-9H-purin-8-yl)phenoxy)-2-methylbutanoic acid]", "values": [{"measurement": "IC50", "setting": "[3]", "value": 1000, "unit": "nM"}]}
{"smiles": "Cc1ccc(C)c(Cn2c(-c3ccc(OCCC(C)C(=O)O)cc3Cl)nc3c(OC4(C)CC4)ncnc32)c1", "note": "(single isomer, unassigned) [Example T572, 4-(3-chloro-4-(9-(2,5-dimethylbenzyl)-6-(1-methylcyclopropoxy)-9H-purin-8-yl)phenoxy)-2-methylbutanoic acid]", "values": [{"measurement": "IC50", "setting": "[3]", "value": 631, "unit": "nM"}]}
{"smiles": "Cc1ccc(C)c(Cn2c(-c3ccc(OCCC(C)C(=O)O)cc3Cl)nc3c(OC4(C)CC4)ncnc32)c1", "note": "(single isomer, unassigned) [Example T573, 4-(3-chloro-4-(9-(2,5-dimethylbenzyl)-6-(1-methylcyclopropoxy)-9H-purin-8-yl)phenoxy)-2-methylbutanoic acid]", "values": [{"measurement": "IC50", "setting": "[4]", "value": 501, "unit": "nM"}]}
{"smiles": "CC(CCOc1ccc(-c2nc3c(OC4(C)CC4)ncnc3n2Cc2ccccc2C2CC2)c(Cl)c1)C(=O)O", "note": "(single isomer, unassigned) [Example T599, 4-(3-chloro-4-(9-(2-cyclopropylbenzyl)-6-(1-methylcyclopropoxy)-9H-purin-8-yl)phenoxy)-2-methylbutanoic acid]", "values": [{"measurement": "IC50", "setting": "[4]", "value": 631, "unit": "nM"}]}
{"smiles": "CC(CCOc1ccc(-c2nc3c(OC4(C)CC4)ncnc3n2Cc2ccccc2C2CC2)c(Cl)c1)C(=O)O", "note": "(single isomer, unassigned) [Example T600, 4-(3-chloro-4-(9-(2-cyclopropylbenzyl)-6-(1-methylcyclopropoxy)-9H-purin-8-yl)phenoxy)-2-methylbutanoic acid]", "values": [{"measurement": "POLQ PD Prolif Lumin", "setting": "DLD-1 BRCA2-/-", "value": 6.3}]}
{"smiles": "CC(COc1cccc(-c2nc3c(OC4(C)CC4)ncnc3n2Cc2cc(Cl)ccc2F)c1Cl)CC(=O)O", "note": "(single isomer, unassigned) [Example U33, 4-(2-chloro-3-(9-(5-chloro-2-fluorobenzyl)-6-(1-methylcyclopropoxy)-9H-purin-8-yl)phenoxy)-3-methylbutanoic acid]", "values": [{"measurement": "IC50", "setting": "DLD-1, DLD-1 BRCA2 −/−, mean, read-out: POLQ PD Prolif Lumin BRCA2 −/− mean pIC50 (converted)", "value": 15.8, "unit": "nM"}]}
{"smiles": "CC(COc1cccc(-c2nc3c(OC4(C)CC4)ncnc3n2Cc2cc(Cl)ccc2F)c1Cl)CC(=O)O", "note": "(single isomer, unassigned) [Example U34, 4-(2-chloro-3-(9-(5-chloro-2-fluorobenzyl)-6-(1-methylcyclopropoxy)-9H-purin-8-yl)phenoxy)-3-methylbutanoic acid]", "values": [{"measurement": "POLQ PD Prolif Lumin BRCA2 −/− mean pIC50", "setting": "mean", "value": 7.5}]}
{"smiles": "COc1ccc(F)cc1Cn1c(-c2cccc(OCC(C)CC(=O)O)c2Cl)nc2c(OC3(C)CC3)ncnc21", "note": "(single isomer, unassigned) [Example U80, 4-(2-chloro-3-(9-(5-fluoro-2-methoxybenzyl)-6-(1-methylcyclopropoxy)-9H-purin-8-yl)phenoxy)-3-methylbutanoic acid]", "values": [{"measurement": "POLQ PD Prolif Lumin BRCA2 −/− mean pIC50", "setting": "mean", "value": 8}]}
